Assay results from article PMC9858543, “Design, synthesis and evaluation of 2, 6, 8-substituted Imidazopyridine derivatives as potent PI3Kα inhibitors” (Journal of Enzyme Inhibition and Medicinal Chemistry, 2023).

Columns and labels:
[1] = system: T47D cells; assay: Apoptosis analysis, annexin V/7-AAD flow cytometry; assay type: cell-based, human; conditions: 50 μM, 24 h
Method: Considering compound 35 was most sensitive in T47D cells, we decided to get some mechanistic insight into the mode of action in T47D cell line. As such, the annexin V/7-AAD staining and cell cycle phase distribution have been carried out. […] Furthermore, T47D cells were also treated with different concentrations of 35, and the percentage of apoptotic cells was measured.
For cell cycle analysis, T47D cell (1 × 10^6) were seeded in 6-well plates overnight and treated with different concentrations of compound 35 and DMSO control on the next day. After 24 h, the cells were collected by EDTA-free trypsinization, centrifuged at 1500 rpm for 5 min, and fixed in 75% ethanol at −20 °C for 1 h. The cells were then centrifuged at 2000 rpm for 5 min, resuspended in 500 µL PI/Rnase Staining Buffer, incubated for 30 min at room temperature, and analysed using flow cytometry. The data were analysed using Modfit software. For cell apoptosis analysis, T47D cell were seeded in 6 well-plates and treated with DMSO or compound 35 for 24 h. The treated cells were collected and washed with cold PBS for three times, resuspended in 185 µL binding buffer containing 5 μL Annexin V-FITC Apoptosis Detection Kit and 10 μL 7-AAD Viability Staining Solution for 15 min at room temperature in the dark. Apoptotic cells were analysed by flow cytometer.

[2] = target: T1, CYP1A2 (Homo sapiens, UniProt P05177); assay: CYP450 inhibition assay in human liver microsomes; assay type: in vitro ADME; conditions: 10 μM
T1 construct: tissue Lot No. 38292; host or cells: human liver microsomes
T1 sequence (P05177 1-516): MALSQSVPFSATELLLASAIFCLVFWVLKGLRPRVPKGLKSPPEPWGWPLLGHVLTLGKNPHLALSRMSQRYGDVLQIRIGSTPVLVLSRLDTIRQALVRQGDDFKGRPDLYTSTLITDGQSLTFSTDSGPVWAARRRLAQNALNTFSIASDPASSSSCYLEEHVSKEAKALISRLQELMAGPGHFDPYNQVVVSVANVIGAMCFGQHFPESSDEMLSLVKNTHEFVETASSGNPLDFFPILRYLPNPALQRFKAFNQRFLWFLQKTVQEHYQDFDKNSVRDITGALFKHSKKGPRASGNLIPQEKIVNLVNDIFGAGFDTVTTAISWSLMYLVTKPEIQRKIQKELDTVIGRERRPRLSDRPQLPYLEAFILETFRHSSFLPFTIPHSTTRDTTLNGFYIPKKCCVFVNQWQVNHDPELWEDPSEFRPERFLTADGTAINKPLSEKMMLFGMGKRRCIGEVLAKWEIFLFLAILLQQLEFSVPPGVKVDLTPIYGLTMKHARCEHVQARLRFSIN
Method: Cytochrome P450 inhibition was evaluated in human liver microsomes (0.253 mg/mL, Lot No. 38292) using five specific probe substrates (CYP1A2, 10 μM phenacetin; CYP2D6, 5 μM dextromethorphan; and CYP3A4, 2 μM midazolam; 2C9, 5 μM Diclofenac; 2C19, 30 μM S-mephenytoin) and positive control in the presence of multiple concentrations of the test compound. After pre-warm at 37 °C for 10 min, the reaction was initiated by the addition of NADPH. The mixture was incubated at 37 °C for 10 min, terminated by the addition of cold stop solution (200 ng/mL tolbutamide and 200 ng/mL labetalol in acetonitrile). The samples were centrifuged, and the supernatants were analysed by LC − MS/MS.

[3] = target: T2, PI3Kα (Homo sapiens, UniProt P42336); assay: In vitro PI3Kα enzymatic assay (ADP-Glo / Kinase-Glo, ATP 25 μM); assay type: biochemical; conditions: ATP 25 μM
T2 construct: purchased Invitrogen
Method: To screen the inhibitory activity of the target compounds against PI3Kα, the Kinase-Glo™ assay with ATP at 25 μM was utilised with PIK-75 as positive control. We chose to explore the SARs at three positions on the Imidazo[1,2-a]pyridine core. To start with, a set of 8-position modifications were prepared while keeping the morpholinyl amide substituent on 2-position fixed, since it allowed quick structure − activity profiling via coupling reactions of bromide with aryl borates or boronic acids. […] We then turned our attention back to the phenyl substituents.
Briefly, the compound, PI3K enzyme (PI3Kα from Invitrogen), the PIP2 (Life Technologies) substrate, and ATP (25 μM, Sigma) were diluted in kinase buffer to the indicated concentrations. The assay plate was covered and incubated at room temperature for 1 h. Then, the Kinase-Glo reagent (Promega) was added to the PI3Kα plate to stop the reaction, mixed briefly with centrifuge, shaken slowly on the shaker and then equilibrate for 120 min. Finally, add Kinase detection reagent to each well, shake 1 min, equilibrate for 30 min before reading on a plate reader for luminescence. The data were collected on Envision and presented in Excel. IC50 values were calculated from the inhibition curves.

T2 sequence (P42336 whole entry): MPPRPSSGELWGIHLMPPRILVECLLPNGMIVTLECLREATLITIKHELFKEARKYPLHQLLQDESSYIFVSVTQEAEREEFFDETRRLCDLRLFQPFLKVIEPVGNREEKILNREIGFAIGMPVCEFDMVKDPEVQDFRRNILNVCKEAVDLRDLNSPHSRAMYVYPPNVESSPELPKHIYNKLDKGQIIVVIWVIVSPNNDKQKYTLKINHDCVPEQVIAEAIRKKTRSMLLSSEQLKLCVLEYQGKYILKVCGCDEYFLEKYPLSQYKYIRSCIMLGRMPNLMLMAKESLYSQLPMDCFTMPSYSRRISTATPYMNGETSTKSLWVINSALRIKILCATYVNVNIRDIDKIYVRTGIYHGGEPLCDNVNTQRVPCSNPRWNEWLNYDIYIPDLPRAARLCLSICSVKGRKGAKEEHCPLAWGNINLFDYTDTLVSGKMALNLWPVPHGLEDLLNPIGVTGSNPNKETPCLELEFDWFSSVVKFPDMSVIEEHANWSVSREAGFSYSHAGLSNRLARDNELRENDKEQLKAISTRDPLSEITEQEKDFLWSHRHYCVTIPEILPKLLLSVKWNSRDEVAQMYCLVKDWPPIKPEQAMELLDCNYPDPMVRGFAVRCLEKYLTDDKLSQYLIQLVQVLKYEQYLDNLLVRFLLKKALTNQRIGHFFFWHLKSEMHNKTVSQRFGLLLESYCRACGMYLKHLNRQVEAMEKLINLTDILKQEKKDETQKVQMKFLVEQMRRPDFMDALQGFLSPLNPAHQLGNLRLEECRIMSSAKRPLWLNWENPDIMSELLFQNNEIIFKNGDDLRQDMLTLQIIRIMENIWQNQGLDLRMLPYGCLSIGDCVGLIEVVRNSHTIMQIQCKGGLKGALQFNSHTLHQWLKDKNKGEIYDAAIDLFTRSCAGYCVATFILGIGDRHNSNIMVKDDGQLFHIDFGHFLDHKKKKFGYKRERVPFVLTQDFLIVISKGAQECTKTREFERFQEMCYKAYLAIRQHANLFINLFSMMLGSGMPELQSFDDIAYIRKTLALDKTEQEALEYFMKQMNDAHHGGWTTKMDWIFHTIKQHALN
T2 sequence (P27986 whole entry partner): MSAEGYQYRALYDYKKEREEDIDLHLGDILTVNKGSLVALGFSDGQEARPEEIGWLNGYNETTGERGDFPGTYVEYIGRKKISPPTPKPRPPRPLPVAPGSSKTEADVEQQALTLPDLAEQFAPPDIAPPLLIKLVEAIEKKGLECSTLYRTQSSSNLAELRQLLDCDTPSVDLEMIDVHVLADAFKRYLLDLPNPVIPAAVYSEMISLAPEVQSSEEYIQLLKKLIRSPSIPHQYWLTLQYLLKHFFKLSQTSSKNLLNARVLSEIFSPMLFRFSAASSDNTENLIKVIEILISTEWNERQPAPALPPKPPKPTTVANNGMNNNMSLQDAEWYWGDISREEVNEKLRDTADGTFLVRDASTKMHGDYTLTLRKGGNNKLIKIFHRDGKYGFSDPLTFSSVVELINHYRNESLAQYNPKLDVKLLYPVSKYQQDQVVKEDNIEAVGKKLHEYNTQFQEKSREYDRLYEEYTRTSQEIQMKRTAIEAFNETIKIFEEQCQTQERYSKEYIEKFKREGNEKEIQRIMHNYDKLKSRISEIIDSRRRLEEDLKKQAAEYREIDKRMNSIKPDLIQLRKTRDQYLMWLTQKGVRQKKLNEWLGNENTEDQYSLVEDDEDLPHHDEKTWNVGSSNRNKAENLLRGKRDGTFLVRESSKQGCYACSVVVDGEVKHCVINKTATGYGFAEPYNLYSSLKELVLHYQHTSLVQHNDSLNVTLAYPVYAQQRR

COc1ncc(-c2cc(C)cn3cc(C(=O)N4CCCC4)nc23)cc1NS(=O)(=O)c1ccc(F)cc1 [Compound 35, 4-Fluoro-N-(2-methoxy-5–(6-methyl-2-(pyrrolidine-1-carbonyl)Imidazo[1,2-a]pyridin-8-yl)pyridin-3-yl)benzenesulfonamide]
Q2 cells (late apoptosis), annexin V/7-AAD [1]: 21.8%
Q3 cells (early apoptosis), annexin V/7-AAD [1]: 1.51%
CYP1A2 % inhibition [2]: 9.8%
IC50 ([3]; mean ± SD of two experiments): 150 ± 20 nM
inhibition at 10 µM ([3]; PI3Kα, compound 10 μM, mean ± SD of three determinations, read-out: % Inhibition at 10 μM): > 85%
